Assays:
[1] = target: Homeodomain-interacting protein kinase 3 (Homo sapiens) (UniProt Q9H422); test: Percentage HIPK3 activity remaining in the presence of 0.1uM inhibitor
[2] = target: Calcium/calmodulin-dependent protein kinase kinase 2 (Homo sapiens) (UniProt Q96RR4); test: Percentage CaMKKbeta activity remaining in the presence of 0.01uM inhibitor
[3] = target: T1, Mitogen-activated protein kinase 13 (Homo sapiens) (UniProt O15264); test: Percentage p38delta activity remaining in the presence of 0.01uM inhibitor
T1 sequence (whole entry): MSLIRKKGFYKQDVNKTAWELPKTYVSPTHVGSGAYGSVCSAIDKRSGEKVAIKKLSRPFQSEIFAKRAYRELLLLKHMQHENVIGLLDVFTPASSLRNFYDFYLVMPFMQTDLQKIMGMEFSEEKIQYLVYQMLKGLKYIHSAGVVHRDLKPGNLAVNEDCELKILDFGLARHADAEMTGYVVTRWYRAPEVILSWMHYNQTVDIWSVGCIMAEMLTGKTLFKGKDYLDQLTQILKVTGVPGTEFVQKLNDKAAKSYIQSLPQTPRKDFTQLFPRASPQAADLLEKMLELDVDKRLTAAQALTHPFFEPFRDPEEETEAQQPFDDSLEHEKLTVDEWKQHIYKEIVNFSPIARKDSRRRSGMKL

[4] = target: MAP kinase-activated protein kinase 3 (Homo sapiens) (UniProt Q16644); test: Percentage MAPKAPK3 activity remaining in the presence of 0.01uM inhibitor
[5] = target: Proto-oncogene tyrosine-protein kinase LCK (Mus musculus) (UniProt P06240); test: Percentage Lck activity remaining in the presence of 0.01uM inhibitor
[6] = target: T2, Dual specificity tyrosine-phosphorylation-regulated kinase 2 (Homo sapiens) (UniProt Q92630); test: Percentage DYRK2 activity remaining in the presence of 0.01uM inhibitor
T2 sequence (whole entry): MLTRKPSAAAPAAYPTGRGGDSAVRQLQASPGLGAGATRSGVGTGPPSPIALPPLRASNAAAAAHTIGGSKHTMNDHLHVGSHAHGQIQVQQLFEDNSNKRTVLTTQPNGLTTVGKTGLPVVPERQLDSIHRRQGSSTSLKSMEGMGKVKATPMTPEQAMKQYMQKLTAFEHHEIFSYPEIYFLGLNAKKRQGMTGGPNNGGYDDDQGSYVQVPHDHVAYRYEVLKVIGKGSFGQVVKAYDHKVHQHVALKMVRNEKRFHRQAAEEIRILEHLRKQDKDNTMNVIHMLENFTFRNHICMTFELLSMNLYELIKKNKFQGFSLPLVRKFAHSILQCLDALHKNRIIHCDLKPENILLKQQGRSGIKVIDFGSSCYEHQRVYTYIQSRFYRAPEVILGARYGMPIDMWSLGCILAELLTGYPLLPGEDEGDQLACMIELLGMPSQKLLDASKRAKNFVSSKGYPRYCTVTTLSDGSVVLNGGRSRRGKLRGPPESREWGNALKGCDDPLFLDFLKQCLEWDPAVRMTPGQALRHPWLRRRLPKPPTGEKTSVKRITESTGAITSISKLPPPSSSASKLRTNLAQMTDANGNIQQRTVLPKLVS

[7] = target: Maternal embryonic leucine zipper kinase (Homo sapiens) (UniProt Q14680); test: Percentage MELK activity remaining in the presence of 0.01uM inhibitor
[8] = target: T3, Aurora kinase C (Homo sapiens) (UniProt Q9UQB9); test: Percentage Aurora C activity remaining in the presence of 0.01uM inhibitor
T3 sequence (whole entry): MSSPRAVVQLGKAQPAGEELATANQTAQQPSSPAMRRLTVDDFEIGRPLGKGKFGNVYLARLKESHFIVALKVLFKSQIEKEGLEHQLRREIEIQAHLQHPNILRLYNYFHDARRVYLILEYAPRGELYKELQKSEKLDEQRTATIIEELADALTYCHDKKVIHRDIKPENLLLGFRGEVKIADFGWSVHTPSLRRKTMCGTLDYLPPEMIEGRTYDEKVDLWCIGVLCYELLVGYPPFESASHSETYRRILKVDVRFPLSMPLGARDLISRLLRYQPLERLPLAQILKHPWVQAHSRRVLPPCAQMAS

[9] = target: T4, Serine/threonine-protein kinase BRSK2 (Homo sapiens) (UniProt Q8IWQ3); test: Percentage BRSK2 activity remaining in the presence of 0.01uM inhibitor
T4 sequence (whole entry): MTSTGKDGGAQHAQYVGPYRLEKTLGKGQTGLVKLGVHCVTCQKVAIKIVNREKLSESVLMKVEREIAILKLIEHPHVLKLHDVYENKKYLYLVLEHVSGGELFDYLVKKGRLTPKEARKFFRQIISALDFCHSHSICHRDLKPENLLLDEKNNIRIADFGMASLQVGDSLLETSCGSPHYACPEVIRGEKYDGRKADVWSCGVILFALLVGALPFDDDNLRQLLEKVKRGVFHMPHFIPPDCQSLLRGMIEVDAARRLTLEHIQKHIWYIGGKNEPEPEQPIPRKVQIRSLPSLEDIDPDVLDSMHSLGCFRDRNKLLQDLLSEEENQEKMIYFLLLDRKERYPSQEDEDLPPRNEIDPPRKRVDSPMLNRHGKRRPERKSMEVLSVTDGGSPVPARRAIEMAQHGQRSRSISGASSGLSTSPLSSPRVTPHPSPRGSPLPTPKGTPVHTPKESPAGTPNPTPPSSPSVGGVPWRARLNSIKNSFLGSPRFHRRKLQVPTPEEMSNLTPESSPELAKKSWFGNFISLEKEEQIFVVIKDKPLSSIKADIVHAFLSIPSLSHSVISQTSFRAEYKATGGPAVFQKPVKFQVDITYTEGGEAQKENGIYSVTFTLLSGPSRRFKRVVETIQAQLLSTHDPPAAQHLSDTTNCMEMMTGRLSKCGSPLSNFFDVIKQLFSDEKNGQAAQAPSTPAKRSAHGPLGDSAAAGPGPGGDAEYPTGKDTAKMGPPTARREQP

Homeodomain-interacting protein kinase 3 (Homo sapiens), sequence (Q9H422 whole entry, looked up): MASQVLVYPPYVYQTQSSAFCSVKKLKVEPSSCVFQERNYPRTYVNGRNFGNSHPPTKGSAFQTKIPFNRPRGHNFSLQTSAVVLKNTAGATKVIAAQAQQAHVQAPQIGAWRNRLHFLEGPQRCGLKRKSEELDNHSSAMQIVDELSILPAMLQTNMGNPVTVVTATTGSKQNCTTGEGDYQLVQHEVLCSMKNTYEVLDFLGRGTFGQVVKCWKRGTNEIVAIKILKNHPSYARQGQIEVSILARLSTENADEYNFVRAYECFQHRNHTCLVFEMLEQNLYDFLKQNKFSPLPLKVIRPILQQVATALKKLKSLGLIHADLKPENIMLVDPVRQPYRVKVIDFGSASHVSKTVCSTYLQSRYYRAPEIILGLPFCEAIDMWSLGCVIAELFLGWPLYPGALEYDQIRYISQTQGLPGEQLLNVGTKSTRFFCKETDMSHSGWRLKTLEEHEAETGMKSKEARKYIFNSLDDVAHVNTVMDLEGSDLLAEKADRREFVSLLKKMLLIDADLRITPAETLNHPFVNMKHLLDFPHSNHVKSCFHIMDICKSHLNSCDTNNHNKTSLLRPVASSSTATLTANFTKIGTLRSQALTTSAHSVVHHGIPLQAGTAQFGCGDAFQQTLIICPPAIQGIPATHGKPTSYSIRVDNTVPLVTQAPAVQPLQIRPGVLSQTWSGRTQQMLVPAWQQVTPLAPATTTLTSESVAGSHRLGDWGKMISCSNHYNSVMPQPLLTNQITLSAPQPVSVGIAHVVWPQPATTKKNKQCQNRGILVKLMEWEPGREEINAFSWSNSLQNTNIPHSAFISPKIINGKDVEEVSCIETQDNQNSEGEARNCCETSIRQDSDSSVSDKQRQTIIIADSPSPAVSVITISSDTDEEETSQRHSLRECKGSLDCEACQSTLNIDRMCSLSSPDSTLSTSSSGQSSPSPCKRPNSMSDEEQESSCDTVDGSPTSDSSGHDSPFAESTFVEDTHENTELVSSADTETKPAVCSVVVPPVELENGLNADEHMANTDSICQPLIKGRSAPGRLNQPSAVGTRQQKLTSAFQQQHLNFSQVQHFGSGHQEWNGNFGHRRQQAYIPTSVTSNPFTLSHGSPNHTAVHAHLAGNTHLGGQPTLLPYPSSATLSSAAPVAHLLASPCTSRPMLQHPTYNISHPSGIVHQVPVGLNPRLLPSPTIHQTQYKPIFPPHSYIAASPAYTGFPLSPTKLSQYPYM
Proto-oncogene tyrosine-protein kinase LCK (Mus musculus), sequence (P06240 2-509 limits assumed): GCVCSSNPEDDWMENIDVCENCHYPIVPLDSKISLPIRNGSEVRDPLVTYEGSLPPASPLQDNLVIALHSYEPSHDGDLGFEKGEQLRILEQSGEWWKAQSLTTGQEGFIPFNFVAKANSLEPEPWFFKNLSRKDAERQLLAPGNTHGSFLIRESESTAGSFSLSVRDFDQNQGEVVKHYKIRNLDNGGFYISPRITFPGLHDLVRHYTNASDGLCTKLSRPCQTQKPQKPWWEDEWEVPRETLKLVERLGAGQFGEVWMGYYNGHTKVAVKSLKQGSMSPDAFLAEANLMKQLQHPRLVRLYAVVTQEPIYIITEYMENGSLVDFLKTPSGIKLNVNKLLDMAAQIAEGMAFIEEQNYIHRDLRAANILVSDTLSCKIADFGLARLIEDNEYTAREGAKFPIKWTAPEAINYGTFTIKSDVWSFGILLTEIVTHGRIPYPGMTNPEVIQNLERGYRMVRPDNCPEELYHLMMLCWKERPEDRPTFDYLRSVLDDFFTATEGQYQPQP
MAP kinase-activated protein kinase 3 (Homo sapiens), sequence (Q16644 whole entry, looked up): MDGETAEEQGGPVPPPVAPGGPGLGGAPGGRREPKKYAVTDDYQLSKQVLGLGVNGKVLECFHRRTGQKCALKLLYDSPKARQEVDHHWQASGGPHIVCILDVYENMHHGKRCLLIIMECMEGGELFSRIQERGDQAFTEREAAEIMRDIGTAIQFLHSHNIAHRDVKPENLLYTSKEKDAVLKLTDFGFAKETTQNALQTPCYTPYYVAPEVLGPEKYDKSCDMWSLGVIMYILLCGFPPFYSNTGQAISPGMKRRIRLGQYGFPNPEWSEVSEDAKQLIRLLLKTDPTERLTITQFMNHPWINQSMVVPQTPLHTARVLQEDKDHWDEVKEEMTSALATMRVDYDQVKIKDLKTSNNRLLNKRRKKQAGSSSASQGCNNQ
Maternal embryonic leucine zipper kinase (Homo sapiens), sequence (Q14680 whole entry, looked up): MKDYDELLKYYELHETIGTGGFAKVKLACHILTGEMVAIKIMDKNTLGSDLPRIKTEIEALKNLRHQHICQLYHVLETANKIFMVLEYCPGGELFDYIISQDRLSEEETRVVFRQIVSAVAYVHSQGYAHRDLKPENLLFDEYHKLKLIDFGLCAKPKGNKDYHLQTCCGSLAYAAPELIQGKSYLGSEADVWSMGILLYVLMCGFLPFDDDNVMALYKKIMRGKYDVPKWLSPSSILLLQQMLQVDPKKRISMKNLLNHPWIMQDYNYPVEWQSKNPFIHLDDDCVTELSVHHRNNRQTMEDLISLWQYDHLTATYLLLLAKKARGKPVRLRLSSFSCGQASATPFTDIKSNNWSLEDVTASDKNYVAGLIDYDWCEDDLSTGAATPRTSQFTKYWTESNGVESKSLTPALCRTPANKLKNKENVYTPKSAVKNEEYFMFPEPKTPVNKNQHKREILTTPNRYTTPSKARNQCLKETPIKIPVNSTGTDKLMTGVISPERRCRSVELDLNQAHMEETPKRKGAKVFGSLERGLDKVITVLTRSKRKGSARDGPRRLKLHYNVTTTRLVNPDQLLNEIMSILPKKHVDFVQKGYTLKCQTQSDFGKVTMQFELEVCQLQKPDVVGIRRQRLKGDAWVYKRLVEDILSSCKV
Calcium/calmodulin-dependent protein kinase kinase 2 (Homo sapiens), sequence (Q96RR4 2-588 limits assumed): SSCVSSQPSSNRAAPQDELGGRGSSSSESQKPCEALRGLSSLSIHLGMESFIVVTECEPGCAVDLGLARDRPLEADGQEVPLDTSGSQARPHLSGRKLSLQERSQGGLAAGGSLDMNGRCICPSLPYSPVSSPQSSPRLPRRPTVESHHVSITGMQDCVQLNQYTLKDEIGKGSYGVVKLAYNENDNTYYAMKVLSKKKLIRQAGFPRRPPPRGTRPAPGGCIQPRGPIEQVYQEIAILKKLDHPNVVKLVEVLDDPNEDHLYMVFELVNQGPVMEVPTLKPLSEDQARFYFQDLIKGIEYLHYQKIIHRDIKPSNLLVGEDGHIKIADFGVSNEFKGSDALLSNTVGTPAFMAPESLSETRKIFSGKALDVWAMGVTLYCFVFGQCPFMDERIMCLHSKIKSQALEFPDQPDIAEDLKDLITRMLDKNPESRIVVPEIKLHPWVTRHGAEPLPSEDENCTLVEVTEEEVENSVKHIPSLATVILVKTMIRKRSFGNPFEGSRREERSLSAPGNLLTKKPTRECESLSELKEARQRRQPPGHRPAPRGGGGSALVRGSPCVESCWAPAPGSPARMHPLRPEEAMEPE

| Compound | Activity [1] | Activity [2] | Activity [3] | Activity [4] | Activity [5] | Activity [6] | Activity [7] | Activity ([8]; filed as antagonist) | Activity [9] | Activity ([2]; filed as antagonist) | Activity ([5]; filed as antagonist) | Activity [8] | Activity ([9]; filed as antagonist) |
| --- | --- | --- | --- | --- | --- | --- | --- | --- | --- | --- | --- | --- | --- |
| Cn1c2ccccc2c2c3c(c4c5ccccc5n(CCC#N)c4c21)CNC3=O | 74% |  |  |  |  |  |  |  |  |  |  |  |  |
| Cn1cc(C2=C(c3cn(CCCSC(=N)N)c4ccccc34)C(=O)NC2=O)c2ccccc21 | 78% |  |  |  |  |  |  |  |  |  |  |  |  |
| O=C(NCCCNc1nc(Nc2cccc(NC(=O)N3CCCC3)c2)ncc1I)c1cccs1 | 94% | 82% | 91% | 103% | 97% | 105% | 95% | 27% | 92% |  |  |  |  |
| CC(C)CCN1c2nc(Nc3cc(F)c(O)c(F)c3)ncc2N(C)C(=O)C1C (centres undefined) | 104% |  |  |  |  |  |  |  |  |  |  |  |  |
| CN[C@@H]1C[C@H]2O[C@@](C)([C@@H]1OC)n1c3ccccc3c3c4c(c5c6ccccc6n2c5c31)C(=O)N[C@H]4O (stereo in doubt) |  |  | 94% | 107% |  | 92% | 53% |  |  | 21% | 50% | 71% | 27% |
| Cc1n[nH]c2ccc(-c3cncc(OC[C@@H](N)Cc4c[nH]c5ccccc45)c3)cc12 | 71% | 83% | 86% | 91% | 97% | 79% | 96% |  | 88% |  |  | 100% |  |

From ChEMBL document CHEMBL1150976, “The selectivity of protein kinase inhibitors: a further update” (Biochem J, 2007)
